According to article PMC9578445, “Association of respiratory failure with inhibition of NaV1.6 in the phrenic nerve” (Channels, 2022):

Tests used:
Nav1.6 [1] = target: T1, Nav1.6 (Homo sapiens, UniProt Q9UQD0); test: PX Nav1.6 IC50 (supplement); format: cell-based; parameters: expressed in transfected cells; host or cells: HEK cells
Method: Sodium currents were recorded from recombinant Human Embryonic Kidney 293 cell lines stably overexpressing the respective sodium channel type (NaV1.2, 1.5, 1.4, 1.6, 1.7). Recording solutions were comprised of the following (in mM): Internal solution: 30 CsCl, 5 HEPES, 10 EGTA, 120 CsF, 5 NaF, 2 MgCl2, pH = 7.3 with CsOH; External solution 1: 40 NaCl, 120 NMDG, 1 KCl, 0.5 MgCl2, 5 HEPES, 2.7 CaCl2, pH to 7.3 with NaOH, used for NaV1.5 recordings; External solution 2: 150 NaCl, 5 KCl, 2 CaCl2, 1 MgCl2, 10 HEPES, 12 Dextrose, pH 7.3 with NaOH, used for NaV1.7, 1.6, 1.4, and 1.2 recordings.
Whole-cell currents were recorded from cells stably expressing NaV channels using the PatchXpress 7000A automated patch clamp platform (Molecular Devices, LLC; Sunnyvale, CA). A portable air-conditioning unit was installed on the PatchXpress instruments to maintain the temperature of the headstage at 21°C. Cells were voltage clamped at −60 mV for cell detection and sealing. At the start of each recording, a voltage curve and an inactivation curve was run for each cell to determine the voltage at which 50% of the channels reside in the inactivated state (V0.5 inact). […]
NaV1.7, NaV1.6, NaV1.4: Compound potency was measured in a hyperpolarized-state protocol where the holding potential for each cell was set to V0.5inact – 20 mV. […]

[2] = target: (Homo sapiens, UniProt Q12809); test: Global Counterscreen MK499 binding
(Homo sapiens, UniProt Q12809), sequence (Q12809 whole entry): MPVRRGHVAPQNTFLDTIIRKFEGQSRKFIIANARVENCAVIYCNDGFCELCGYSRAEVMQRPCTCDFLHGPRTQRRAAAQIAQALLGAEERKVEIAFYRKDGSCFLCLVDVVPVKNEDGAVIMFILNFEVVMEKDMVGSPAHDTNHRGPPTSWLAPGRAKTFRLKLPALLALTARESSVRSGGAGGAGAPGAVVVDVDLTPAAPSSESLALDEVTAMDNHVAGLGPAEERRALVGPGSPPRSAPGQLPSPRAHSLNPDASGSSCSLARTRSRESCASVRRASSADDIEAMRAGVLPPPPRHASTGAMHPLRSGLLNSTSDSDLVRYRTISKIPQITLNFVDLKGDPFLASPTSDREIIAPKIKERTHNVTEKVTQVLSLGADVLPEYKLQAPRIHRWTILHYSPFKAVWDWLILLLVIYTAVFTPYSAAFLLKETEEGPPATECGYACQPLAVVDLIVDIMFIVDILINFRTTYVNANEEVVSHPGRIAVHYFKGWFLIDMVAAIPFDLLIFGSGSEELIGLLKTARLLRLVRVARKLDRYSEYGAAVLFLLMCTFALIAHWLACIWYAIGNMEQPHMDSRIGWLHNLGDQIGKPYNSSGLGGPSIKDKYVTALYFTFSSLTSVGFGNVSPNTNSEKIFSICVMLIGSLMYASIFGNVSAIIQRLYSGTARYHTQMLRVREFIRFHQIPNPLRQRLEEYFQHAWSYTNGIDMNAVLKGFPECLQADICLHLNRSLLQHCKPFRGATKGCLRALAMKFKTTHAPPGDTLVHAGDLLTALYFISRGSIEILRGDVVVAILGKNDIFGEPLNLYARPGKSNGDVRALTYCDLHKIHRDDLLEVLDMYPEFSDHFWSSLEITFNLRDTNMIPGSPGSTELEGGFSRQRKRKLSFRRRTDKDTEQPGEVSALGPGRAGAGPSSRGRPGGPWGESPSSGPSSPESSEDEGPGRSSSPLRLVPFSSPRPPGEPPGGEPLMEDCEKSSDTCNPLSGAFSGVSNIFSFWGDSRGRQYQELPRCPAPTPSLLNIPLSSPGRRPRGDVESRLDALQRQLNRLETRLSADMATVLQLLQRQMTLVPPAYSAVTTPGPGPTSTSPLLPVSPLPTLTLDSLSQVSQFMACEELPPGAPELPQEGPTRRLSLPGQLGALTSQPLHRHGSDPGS
From the text: (§1) Supplement KCHL_A_2122309_SM6747.docx, table 1 | column: SSI-5; SSI-3; SSI-4; SSI-1; SSI-6

Cav1.2 = Cav1.2 (Homo sapiens, UniProt Q13936); test: Global Counterscreen Cav1.2
From the text: as §1

[3] = Rat plasma protein binding; format: in vitro ADME
From the text: as §1

Nav1.6 [4] = target: T1, Nav1.6; test: Nav1.6 binding; parameters: expressed in transfected cells; host or cells: HEK cells; details: read-out: Nav1.6 bind Ki
From the text: as §1

[5] = Plasma exposure in rat CV/R assay; format: in vivo; details: for concentration at 15 min / concentration at 30 min: CD, plasma, iv; for concentration at 15 min / concentration at 30 min / Total [plasma] / Unbound [plasma]: rat, IV infusion; for unbound plasma concentration just prior to death: blood samples taken just prior to death; for Total [plasma] / Unbound [plasma]: just prior to death
From the text: For in vivo CVR and phrenic nerve activity studies, all raw signals were amplified via general purposed biological amplifier (filter settings DC – 3-5 KhZ) then digitized, calibrated and collected at a minimum of 500 Hz (1000 Hz for ECG and 2000 Hz for cardiac electrograms, and 10 KHz for phrenic nerve activity) using Notocord-HEM data acquisition and analysis software. The raw signal was filtered following acquisition with a bandpass filter set to 200–800 Hz). Vehicle (100% dimethylformamdide, DMF) or compound formulated in the vehicle was administered as a 30-minute IV infusion at 0.0167 μL/g body weight/min. […] Exposure in rats was determined in separate pharmacokinetics experiments where compounds were administered via IV dosing.

hERG = hERG (Homo sapiens, UniProt Q12809); test: Functional Ion Channel Panel hERG; format: biochemical; details: read-out: hERG %inh
From the text: (§2) Supplement KCHL_A_2122309_SM6747.docx, table 1 | column: SSI-5; SSI-3; SSI-4; SSI-1

NAChR α3β4 = target: T2, NAChR α3β4 (Homo sapiens, UniProt P30926+P32297); test: Panlabs selection; format: binding
T2 construct: Panlabs

Serotonin 5-HT2B = Serotonin 5-HT2B (Homo sapiens, UniProt P41595); test: Panlabs selection; format: binding
From the text: as §2

[6] = target: Transporter, Norepinephrine NET (Homo sapiens, UniProt P23975); test: Panlabs selection; format: binding
From the text: as §2

[7] = target: Transporter, Dopamine DAT (Homo sapiens, UniProt Q01959); test: Panlabs selection; format: binding
From the text: as §2

Melanocortin MC5 = target: T3, Melanocortin MC5 (Homo sapiens, UniProt P33032); test: Panlabs selection; format: binding
T3 construct: Panlabs
From the text: as §2

Adrenergic α2B = target: T4, Adrenergic α2B (Homo sapiens, UniProt P18089); test: Panlabs selection; format: binding
T4 construct: Panlabs
From the text: as §2

Adrenergic α1D = target: T5, Adrenergic α1D (Homo sapiens, UniProt P25100); test: Panlabs selection; format: binding
T5 construct: Panlabs
T5 sequence (P25100 whole entry): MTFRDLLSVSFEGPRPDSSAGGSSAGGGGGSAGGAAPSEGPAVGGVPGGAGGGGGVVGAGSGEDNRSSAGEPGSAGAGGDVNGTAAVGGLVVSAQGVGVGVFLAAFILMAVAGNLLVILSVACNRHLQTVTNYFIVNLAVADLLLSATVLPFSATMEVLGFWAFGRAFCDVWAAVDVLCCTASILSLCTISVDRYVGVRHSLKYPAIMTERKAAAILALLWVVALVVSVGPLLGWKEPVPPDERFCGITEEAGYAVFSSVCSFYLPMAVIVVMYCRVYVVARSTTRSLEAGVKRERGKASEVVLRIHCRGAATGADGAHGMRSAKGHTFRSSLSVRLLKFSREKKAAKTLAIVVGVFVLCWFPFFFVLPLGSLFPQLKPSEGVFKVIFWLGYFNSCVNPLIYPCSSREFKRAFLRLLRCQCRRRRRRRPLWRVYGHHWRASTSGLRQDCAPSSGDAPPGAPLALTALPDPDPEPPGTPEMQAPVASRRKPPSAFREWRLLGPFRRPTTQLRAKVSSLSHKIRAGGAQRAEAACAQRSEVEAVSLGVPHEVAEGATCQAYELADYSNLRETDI
From the text: as §2

[8] = Plasma exposure in phrenic nerve activity assay; format: in vivo; details: rat; for concentration at 30 min / concentration at 15 min: CD, plasma, intravenous
From the text: For in vivo CVR and phrenic nerve activity studies, all raw signals were amplified via general purposed biological amplifier (filter settings DC – 3-5 KhZ) then digitized, calibrated and collected at a minimum of 500 Hz (1000 Hz for ECG and 2000 Hz for cardiac electrograms, and 10 KHz for phrenic nerve activity) using Notocord-HEM data acquisition and analysis software. The raw signal was filtered following acquisition with a bandpass filter set to 200–800 Hz). Vehicle (100% dimethylformamdide, DMF) or compound formulated in the vehicle was administered as a 30-minute IV infusion at 0.0167 μL/g body weight/min. Doses were selected to achieve unbound plasma concentrations in range of measured Nav1.6 IC50 values when infused at 0.0167uL/g body weight/min based on measured rat clearance, plasma protein binding and Nav1.6 IC50. Exposure in rats was determined in separate pharmacokinetics experiments where compounds were administered via IV dosing.

Pgp = Pgp (Homo sapiens, UniProt P08183); test: Permeability BA/AB ratio (Pgp transport); format: in vitro ADME; details: not told
Pgp, sequence (P08183 whole entry): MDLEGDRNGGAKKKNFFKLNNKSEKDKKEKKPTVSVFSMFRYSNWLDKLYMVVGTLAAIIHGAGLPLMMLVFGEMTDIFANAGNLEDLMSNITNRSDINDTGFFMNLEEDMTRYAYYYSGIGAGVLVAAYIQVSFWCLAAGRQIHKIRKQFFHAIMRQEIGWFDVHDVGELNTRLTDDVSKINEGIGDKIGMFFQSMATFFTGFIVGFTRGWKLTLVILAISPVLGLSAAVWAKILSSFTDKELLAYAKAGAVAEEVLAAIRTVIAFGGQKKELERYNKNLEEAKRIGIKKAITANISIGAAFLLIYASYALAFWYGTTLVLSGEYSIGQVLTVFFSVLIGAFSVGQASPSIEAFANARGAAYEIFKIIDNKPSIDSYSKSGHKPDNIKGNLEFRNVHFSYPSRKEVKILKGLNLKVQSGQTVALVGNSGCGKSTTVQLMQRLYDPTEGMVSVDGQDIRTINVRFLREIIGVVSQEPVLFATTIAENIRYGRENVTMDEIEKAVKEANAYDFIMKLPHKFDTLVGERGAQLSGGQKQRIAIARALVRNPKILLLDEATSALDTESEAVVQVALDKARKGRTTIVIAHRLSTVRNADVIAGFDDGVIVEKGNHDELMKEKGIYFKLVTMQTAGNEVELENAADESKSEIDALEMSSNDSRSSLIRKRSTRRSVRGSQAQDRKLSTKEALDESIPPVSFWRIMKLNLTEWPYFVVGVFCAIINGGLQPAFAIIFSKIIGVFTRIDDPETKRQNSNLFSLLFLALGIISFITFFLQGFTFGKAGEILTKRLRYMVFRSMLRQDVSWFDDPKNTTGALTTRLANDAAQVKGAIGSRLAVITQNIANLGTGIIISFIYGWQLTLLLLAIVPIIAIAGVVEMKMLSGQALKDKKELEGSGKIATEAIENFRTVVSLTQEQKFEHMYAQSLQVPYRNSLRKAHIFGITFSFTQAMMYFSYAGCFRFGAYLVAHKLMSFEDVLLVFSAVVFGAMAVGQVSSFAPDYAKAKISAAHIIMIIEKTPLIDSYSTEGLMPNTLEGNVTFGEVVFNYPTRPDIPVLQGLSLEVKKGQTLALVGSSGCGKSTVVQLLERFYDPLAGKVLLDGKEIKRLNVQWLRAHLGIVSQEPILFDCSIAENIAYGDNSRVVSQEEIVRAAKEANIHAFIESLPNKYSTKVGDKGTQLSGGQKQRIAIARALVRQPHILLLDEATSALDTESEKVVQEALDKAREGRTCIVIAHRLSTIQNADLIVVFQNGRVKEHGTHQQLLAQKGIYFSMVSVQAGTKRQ

[9] = 1 mg/kg, 1 mg/kg, read-out: Total [plasma]
[10] = 1 mg/kg, 1 mg/kg, read-out: Unbound [plasma]
[11] = 30 mg/kg, read-out: Total [plasma]
[12] = 30 mg/kg, read-out: Unbound [plasma]
[13] = 14 mg/kg, 14 mg/kg, read-out: Total [plasma]
[14] = 14 mg/kg, 14 mg/kg, read-out: Unbound [plasma]
[15] = male, 7 mg/kg, 7 mg/kg, read-out: Total [plasma]
[16] = male, 7 mg/kg, 7 mg/kg, read-out: Unbound [plasma]
[17] = male, 30 mg/kg, 30 mg/kg, read-out: Total [plasma]
[18] = male, 30 mg/kg, 30 mg/kg, read-out: Unbound [plasma]
[19] = 10 mg/kg, 10 mg/kg, read-out: Total [plasma]
[20] = 10 mg/kg, 10 mg/kg, read-out: Unbound [plasma]
[21] = 60 mg/kg, read-out: Total [plasma]
[22] = 60 mg/kg, read-out: Unbound [plasma]

T1 sequence (Q9UQD0 whole entry): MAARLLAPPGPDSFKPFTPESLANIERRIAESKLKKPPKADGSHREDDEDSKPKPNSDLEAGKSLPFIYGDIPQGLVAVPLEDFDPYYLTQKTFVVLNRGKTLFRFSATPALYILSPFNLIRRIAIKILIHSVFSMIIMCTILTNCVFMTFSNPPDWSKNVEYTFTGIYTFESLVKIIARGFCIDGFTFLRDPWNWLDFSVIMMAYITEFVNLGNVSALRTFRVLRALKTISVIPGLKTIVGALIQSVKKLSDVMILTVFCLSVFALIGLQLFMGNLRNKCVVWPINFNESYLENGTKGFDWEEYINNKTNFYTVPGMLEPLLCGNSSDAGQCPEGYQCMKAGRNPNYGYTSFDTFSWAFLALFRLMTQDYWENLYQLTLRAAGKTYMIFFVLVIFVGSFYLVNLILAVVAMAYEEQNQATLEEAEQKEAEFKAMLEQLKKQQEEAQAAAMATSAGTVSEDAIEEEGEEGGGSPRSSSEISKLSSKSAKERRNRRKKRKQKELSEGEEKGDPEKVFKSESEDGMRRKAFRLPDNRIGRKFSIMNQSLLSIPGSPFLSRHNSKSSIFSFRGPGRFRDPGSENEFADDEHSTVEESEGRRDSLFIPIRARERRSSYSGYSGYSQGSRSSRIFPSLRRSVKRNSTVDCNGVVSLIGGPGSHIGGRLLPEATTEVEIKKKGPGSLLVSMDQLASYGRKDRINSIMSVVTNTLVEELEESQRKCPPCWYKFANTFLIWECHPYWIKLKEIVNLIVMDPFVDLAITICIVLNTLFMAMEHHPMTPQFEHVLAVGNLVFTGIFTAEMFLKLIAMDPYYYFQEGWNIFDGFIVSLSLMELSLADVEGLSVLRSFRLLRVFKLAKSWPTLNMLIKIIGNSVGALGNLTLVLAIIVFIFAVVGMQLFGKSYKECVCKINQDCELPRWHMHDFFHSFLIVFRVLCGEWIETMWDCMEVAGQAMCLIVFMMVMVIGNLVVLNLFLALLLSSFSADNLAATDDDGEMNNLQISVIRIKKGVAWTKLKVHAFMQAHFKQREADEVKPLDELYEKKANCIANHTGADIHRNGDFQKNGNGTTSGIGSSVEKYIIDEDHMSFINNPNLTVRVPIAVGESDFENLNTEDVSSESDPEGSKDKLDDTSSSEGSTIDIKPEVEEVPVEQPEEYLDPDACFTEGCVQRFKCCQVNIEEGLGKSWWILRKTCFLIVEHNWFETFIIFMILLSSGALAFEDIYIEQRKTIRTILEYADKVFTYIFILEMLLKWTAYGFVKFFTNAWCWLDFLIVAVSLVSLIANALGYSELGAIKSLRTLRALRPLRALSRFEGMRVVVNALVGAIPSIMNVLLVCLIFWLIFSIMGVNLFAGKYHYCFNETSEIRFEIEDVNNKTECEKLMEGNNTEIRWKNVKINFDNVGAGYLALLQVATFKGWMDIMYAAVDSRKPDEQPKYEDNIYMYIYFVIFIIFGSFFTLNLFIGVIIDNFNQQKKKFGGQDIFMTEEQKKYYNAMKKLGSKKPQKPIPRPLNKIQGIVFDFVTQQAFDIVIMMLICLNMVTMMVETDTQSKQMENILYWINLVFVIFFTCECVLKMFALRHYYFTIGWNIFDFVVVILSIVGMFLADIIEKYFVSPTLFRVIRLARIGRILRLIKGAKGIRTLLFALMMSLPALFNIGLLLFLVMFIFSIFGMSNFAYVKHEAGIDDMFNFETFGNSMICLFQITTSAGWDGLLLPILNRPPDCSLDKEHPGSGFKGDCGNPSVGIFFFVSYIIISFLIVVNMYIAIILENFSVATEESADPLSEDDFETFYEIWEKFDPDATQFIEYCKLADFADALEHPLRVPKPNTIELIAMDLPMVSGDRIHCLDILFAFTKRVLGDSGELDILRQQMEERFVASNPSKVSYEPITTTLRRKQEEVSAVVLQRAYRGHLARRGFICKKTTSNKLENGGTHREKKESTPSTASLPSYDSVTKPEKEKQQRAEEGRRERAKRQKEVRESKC

## COc1ccc(CCC(c2cccc3c2CNCC3)n2c(=O)oc3cc(S(=O)(=O)Nc4ncns4)c(F)cc32)cc1 (stereo not drawn) [SSCI-6]
Nav1.6 [1]
  IC50: 0.018 to 0.036 µM
[2]
  Ki: 17 µM
Cav1.2
  IC50: 24 µM
[3]
  fraction unbound: 0.018
Nav1.6 [4]
  Ki: 0.08 nM
[5]; [9]
  concentration at 15 min: 1.4 ± 0.2 µM
  concentration at 30 min: 1.5 µM
[5]; [10]
  concentration at 15 min: 0.025 ± 0.004 µM
  concentration at 30 min: 0.027 µM
[5]; rat CV/R assay
  unbound plasma concentration just prior to death: 0.05 µM
[5]; 1 mg/kg, 20–23 min
  Total [plasma]: 2.8a μM
  Unbound [plasma]: 0.050a μM

## O=S(=O)(Nc1nccs1)c1cc(Cl)c(NCCCCNC[C@H]2CCCN2)cc1F [SSCI-1]
Nav1.6 [1]
  IC50: 18.2 µM
[2]
  Ki: > 54 µM
Cav1.2
  IC50: > 30 µM
[3]
  fraction unbound: 0.067
hERG
  inhibition at 30 µM: 22%
NAChR α3β4
  Ki: > 10 µM
Serotonin 5-HT2B
  Ki: > 10 µM
[6]
  Ki: 3.93 µM
[7]
  Ki: 980 nM
Melanocortin MC5
  Ki: > 10 µM
Adrenergic α2B
  Ki: > 10 µM
Adrenergic α1D
  Ki: > 10 µM
[8]; [11]
  concentration at 30 min: 236 ± 110 µM
[8]; [12]
  concentration at 30 min: 15.8 ± 7.37 µM
Nav1.6 [4]
  Ki: 47.1 nM
[5]; [13]
  concentration at 15 min: 88.3 ± 5.6 µM
  concentration at 30 min: 104 ± 5.2 µM
[5]; [14]
  concentration at 15 min: 5.9 ± 0.4 µM
  concentration at 30 min: 7 ± 0.3 µM
[5]; [15]
  concentration at 15 min: 54.4 ± 3.2 µM
  concentration at 30 min: 76.7 ± 4.1 µM
[5]; [16]
  concentration at 15 min: 3.6 ± 0.2 µM
  concentration at 30 min: 5.1 ± 0.3 µM
[5]; [17]
  concentration at 15 min: 230 ± 12 µM
  concentration at 30 min: 252 ± 4 µM
[5]; [18]
  concentration at 15 min: 15.4 ± 0.8 µM
  concentration at 30 min: 16.9 ± 0.3 µM
[5]; rat CV/R assay, no mortality
  unbound plasma exposure: 16.9 µM
Pgp
  efflux ratio: ~1.1

## C[C@H](c1cccc2c1CNCC2)n1c(=O)oc2cc(S(=O)(=O)Nc3ncns3)ccc21 [SSCI-3]
[8]; [11]
  concentration at 15 min: 32.1 ± 3.4 µM
[8]; [12]
  concentration at 15 min: 3.78 ± 0.4 µM
[8]; 30 mg/kg, 22–30 min
  Total [plasma]: 43.549 ± 3.116 µM
  Unbound [plasma]: 5.138 ± 0.36 µM
[5]; [19]
  concentration at 15 min: 32.1 ± 2 µM
  concentration at 30 min: 43.5 ± 1.8 µM
[5]; [20]
  concentration at 15 min: 3.8 ± 0.2 µM
  concentration at 30 min: 5.1 ± 0.2 µM
[5]; [17]
  concentration at 15 min: 108 ± 4.1 µM
[5]; [18]
  concentration at 15 min: 12.7 ± 0.5 µM
[5]; rat CV/R assay
  unbound plasma concentration just prior to death: 20.2 µM
[5]; 30 mg/kg, 20–21 min
  Total [plasma]: 171.2 ± 10.2a μM
  Unbound [plasma]: 20.2 ± 1.2a μM
Pgp
  efflux ratio: ~1.03

## N#Cc1cc(S(=O)(=O)Nc2cscn2)ccc1Oc1ccc(Cl)cc1-c1ccnn1C1CNC1 [SSCI-5]
[8]; [21]
  concentration at 15 min: 82.7 ± 15.2 µM
  concentration at 30 min: 86.2 ± 42.1 µM
[8]; [22]
  concentration at 15 min: 10.6 ± 1.94 µM
  concentration at 30 min: 11 ± 5.39 µM
[5]; [17]
  concentration at 15 min: 38.2 ± 1.6 µM
  concentration at 30 min: 42.1 ± 1.2 µM
[5]; [18]
  concentration at 15 min: 4.9 ± 0.2 µM
  concentration at 30 min: 5.4 ± 0.2 µM
[5]; male, 60 mg/kg, 60 mg/kg, read-out: Total [plasma]
  concentration at 15 min: 67.7 µM
[5]; male, 60 mg/kg, 60 mg/kg, read-out: Unbound [plasma]
  concentration at 15 min: 8.7 µM
[5]; rat CV/R assay
  unbound plasma concentration just prior to death: 19.7 µM
[5]; 60 mg/kg, 21–23 min
  Total [plasma]: 154a μM
  Unbound [plasma]: 19.7a μM
Pgp
  efflux ratio: < 999
